Reference: a melting point compilation (Tetko et al.; mined from patent text by program, amines drawn as free bases though some values may be those of a salt)

melting point [°C]	SMILES
179 to 181	FC(F)(F)c1ccc(/C=C/c2nc(COc3ccc(-c4nc(Cn5ccnn5)co4)cc3)cs2)cc1
145 to 188	O=C(Nc1ccc(C(=O)N2Cc3ccccc3Oc3ccccc32)c(Cl)c1)c1ccccc1-c1ccccc1
49 to 52	CC(C)(C)C(O)(Cn1cncn1)C(Cl)=CCl (stereo unspecified)
195 to 205	CC(C)N(C(=O)C(C)C(C#N)(c1ccccc1)c1ccccc1)C(C)C (stereo unspecified)
178	O=C(C=Cc1cccc(NC(=O)C=Cc2ccccc2)c1)NO
135 to 136	CN1C(=O)NC(=O)C1O (stereo unspecified)
129 to 130	O=Cc1ccc(N(c2ccccc2)c2ccccc2)cc1
291 to 292	O=S1(=O)N=C(NC2CCCC2)Nc2cc(Cl)sc21
267 to 269	NC(=O)c1nc(-c2cccc(C3=Nc4ccc(-n5cccc5)cc4NC(=O)C3)c2)cs1
140 to 143	O=C(O)CCC(Cc1ccccc1Cl)(C(=O)C=Cc1c(Cl)cccc1Cl)c1ccccc1 (stereo unspecified)
202 to 206	Cc1ccc(S(=O)(=O)N2CCC(C#N)(c3ccc(Cl)cc3)CC2)cc1
248 to 250	Cc1cc(C#N)cc(C)c1Oc1ncnc(Nc2ccc(C#N)cc2)n1
120	COC(=O)N[C@@H]1CN2C(=O)N(c3cc(Cl)nc(Cl)c3)C(=O)[C@@]2(Cc2ccc(OC(F)(F)F)cc2)C1
171	CC(C)(C)C(O)C(C(Sc1ccccc1)c1ccc(F)cc1)n1cncn1 (stereo unspecified)
84 to 86	COC(=O)C(O)P(C)(C)=O (stereo unspecified)
137 to 139	CCOC(=O)C1(c2ccccc2)CCC=CC1Cl (stereo unspecified)
113 to 114	CCC(=NO)c1ccc(Sc2cc(F)cc([C@@]3(OC)CCO[C@@H]3C)c2)cc1 (racemic)
74	COc1cc(OS(=O)(=O)C(F)(F)F)c(Cl)c(C)c1Cl
141 to 143	CN(C)CC1CCCN(c2cc3ccccc3c(=O)[nH]2)C1 (stereo unspecified)
175 to 177	CCOC(=O)c1cnn(C)c1C(=O)Nc1ccn2nc(C(C)C)nc2c1
172	CC#CCOc1ccc(S(=O)(=O)C2(C(=O)O)CCN(Cc3ccc(OCCN4CCCCC4)cc3)CC2)cc1
95	CCOCC1(F)CCN([C@@H](c2ccc(C(F)(F)F)cc2CN(Cc2cc(C(F)(F)F)cc(C(F)(F)F)c2)c2nnn(C)n2)C(C)C)CC1
141	NC(=O)N(O)Cc1ccc(Oc2ccc(-n3ccnc3)cc2)s1
109 to 110	COc1ccc2[nH]c(SCc3ncc(C)c(N(C)C)c3Cl)nc2c1
116 to 118	CCCCOc1cc(CCC(=O)O)n(Cc2ccc(C(F)(F)F)cc2)n1

melting point [°C]	SMILES
129 to 131	OCc1cn(Cc2ccccc2)c(-c2ccc(OCc3ccccc3)cc2)n1
174 to 175	CCOC(=O)CC(NCCCNC(C)(C)C)C(=O)O (stereo unspecified)
158 to 161	CON=C(C)CCCn1c(C)nc2c(N)nc3ccccc3c21
45 to 54	CC(C)C[C@H](NC1CCCCC1)C(=O)N1CCN(C(c2ccc(F)cc2)c2ccc(F)cc2)CC1
300	Nc1ncc(-c2ccc(=O)[nH]n2)c(-c2ccc(Cl)c(Cl)c2)n1
88 to 90	CN(CCOc1ccc(CC2SC(=O)NC2=O)cc1)C(=O)Nc1ccccc1 (stereo unspecified)
131 to 132	Cc1c(O)ccc(C(=O)c2ccccc2F)c1C
157 to 158	FC(F)(Br)C(F)(F)Oc1ccc(C2(c3ccc(OC(F)(F)C(F)(F)Br)cc3)c3ccccc3-c3ccccc32)cc1
121 to 122	N#Cc1c(Cl)cccc1C(Cl)(Cl)Cl
67.2 to 69.8	CCc1cc2c(cc1Cl)=CCc1cccnc1C=2C1CCN(C(=O)Cc2cccnc2)CC1
69	C1CNCCN2CCOCCOCCN(CCN1)CCOCCOCC2
138 to 139	c1ccc(NC(Nc2ccccc2)Nc2ccccc2)cc1
125 to 127	CCN(C1CCN(Cc2ccccc2)C1)S(=O)(=O)c1ccc(Nc2nccc(Nc3ccc(F)cc3)n2)cc1 (stereo unspecified)
128 to 131	CS(=O)(=O)Nc1cccc(Nc2nc(NCc3cccc(C#N)c3)c3nc[nH]c3n2)c1
77 to 78	CCC(C)n1nnc2c(N=C=S)cccc21 (stereo unspecified)
125 to 127	CCOC(=O)/C=C/c1cnc(Cl)nc1
211	CS(=O)(=O)C(=C1CN(C(c2ccccc2)c2ccccc2)C1)c1ccc(O)cc1
112 to 120	O=C(O)CC(=O)Nc1ccccc1CCNC(=O)/C(=C/c1c[nH]c2ccccc12)NC(=O)OC1C2CC3CC(C2)CC1C3 (stereo unspecified)
166 to 168	COc1cc(N)c(Cl)cc1C(=O)NCC1CCN(CCCS(=O)(=O)Cc2ccccc2)CC1
60 to 65	CCC(O)CC(O)CC (stereo unspecified)
191 to 194	COc1cc2c3c(n(C(=O)c4ccccc4)c2cc1OC)CCC(C(=O)O)C3 (stereo unspecified)
70 to 72	COc1ccc(C(=O)c2cc(OC)ccc2O)cc1
154 to 155	N#CSCCNc1ccc(Cl)cc1[N+](=O)[O-]
> 210	COc1ccnc2[nH]cc(-c3ccnc(N)n3)c12
283 to 286	Cc1[nH]c(=O)[nH]c1C(=O)c1ccc(N2CCOCC2)cc1

melting point [°C]	SMILES
265 to 268	CN(C)C=Cc1[nH]c(=O)ccc1C(=O)c1ccc(Br)cc1
199	CSC(=S)Nc1ccc(C)cc1C(=O)O
74	CCCNC(=O)n1c(Cc2ccccc2)noc1=O
113 to 114	OCc1sc(Cl)nc1-c1ccc(Cl)cc1
44 to 45	OCCc1ccc(-c2ccc(F)cc2F)c(F)c1
165	COc1cc(-c2cc3ccccc3[nH]2)ccc1O
131 to 132	CN1Cc2ccccc2C(Oc2ccc(C#N)cc2)C1 (stereo unspecified)
160 to 161	CC(=O)OCc1cc2c(c3c1CCC3)C(=O)c1ccccc1C2=O
81.5 to 83	O=C(c1ccc(Cl)cc1)C(Br)c1ccc(Cl)cc1 (stereo unspecified)
213 to 215	O=S1CCN(c2nc(N3CCNCC3)cc3c(F)cccc23)CC1
81 to 91	CC(=O)OC(C(Oc1ccc(Cl)cc1)n1ccnc1)C(C)(C)C (stereo unspecified)
125 to 126	COc1ccc(CNc2c(Cl)cnn(-c3ccccc3)c2=O)cc1
88	CC12CCC(=O)C=C1CCC(=Cc1ccccc1)C2=O (stereo unspecified)
195 to 197	COc1cc(N2CCN(C)CC2)c2oc(C(=O)Nc3ccc(N4CCN(C(=O)CCO)CC4)cc3)cc(=O)c2c1
162 to 163	CS(=O)(=O)Nc1cc2occ(N)c(=O)c2cc1Oc1ccccc1
106 to 108	COc1cc2cc(C)c(CO)c(-c3ccnc(Br)c3)c2cc1OC
65 to 68	COc1cc(Cl)cc(CC(O)CO)c1OCc1ccccc1 (stereo unspecified)
202 to 203	O=C(Nc1ccc(-c2ccccc2)s1)c1ccccc1
186 to 188	Cc1ccc2nc(-c3ccc(Cl)cc3)c(CN3CCCC3=O)n2c1
120	Clc1ccc(-n2nc3cc(Cl)ccc3c2Cl)c(Cl)c1
70 to 72	CCC(C)c1ccc(-n2c(-c3cc(C)c(OCCO)c(C)c3)nc3ccc(F)cc3c2=O)cc1 (stereo unspecified)
129 to 131	CCOC(=O)Cn1c(C(=O)NCc2nnc(C)n2-c2sc(CC)cc2C(=O)c2ccccc2)cc2ccccc21
182 to 183	CC(C)Cn1c(CN2C(=O)c3ccccc3C2=O)c(-c2ccc(Cl)cc2)c2cc(OCc3ccccc3)ccc2c1=O
223	CCN(CC)C(=O)Cn1c(=N)sc2cc(OC(F)(F)F)ccc21
81 to 83	COC(=O)c1cc(I)cn1[Si](C(C)C)(C(C)C)C(C)C

melting point [°C]	SMILES
75 to 76	c1csc(-c2cnc(COc3ccc(CCCn4ccnc4)cc3)o2)c1
86	CC1(C)CC(N(C=O)CCc2ccccc2)CC(C)(C)N1
110 to 112	COc1ccc(Nc2ccccc2CCC(=O)c2ccccc2)cc1
86 to 88	CCCc1cc(Cl)c(OC(=S)N(C)C)c(C(C)=O)c1OC(C)=O
167 to 168	CCc1cnc2c(NC(=O)c3c(Cl)cccc3Cl)cccc2c1CC(=O)OC
> 300	NNC(=O)C1=Nc2cccc3c(=O)[nH]nc(c23)N1
116	CN(C#N)c1ccc(OCc2ccccc2)cc1
250 to 252	Cc1cccc2oc(C(=O)Nc3ccc(-c4ccc(S(=O)(=O)NC(C(=O)O)C(C)C)cc4)cc3)c(C)c12 (stereo unspecified)
158	CC(C)N1CCC(n2nc(-c3c(-c4ccccc4)nn4ccccc34)ccc2=O)CC1
57 to 58	CCCCNc1c(C(=O)OCC)c(C)nc2nnsc12
120 to 121	COc1ccccc1C(C#N)(CC1CCCCO1)Cn1cncn1 (stereo unspecified)
232 to 236	CCn1c2ccccc2c2c3c(c(-c4ccccc4Cl)cc21)C(O)NC3=O (stereo unspecified)
168 to 170	CN(C)c1ccc(-c2nc3cccnc3o2)cc1
81 to 82	CCN1CCCC1CNc1ccc(-c2ccnc(Nc3cc(OC)c(OC)c(OC)c3)n2)cn1 (stereo unspecified)
164 to 166	CC(C)=CCOc1ccc(C(=O)C=Cc2ccccc2)c(O)c1
92 to 95	CCCCCCCCCCCCCCCCCCOc1cc(OCCCOc2ccc(O)cc2)cc(C(=O)O)c1
126 to 127	Fc1ccc(N2CCN(Cc3ccc4c(c3)NCCN4)CC2)cc1
175 to 180	O=C(O)Cc1cn(C(=O)c2cncs2)c2ccc(Cl)cc12
92 to 94	CC(=O)c1cccc(NC(=O)c2ccc3oc(COCc4ccccc4)cc3c2)c1O
101 to 102	Cc1c(N)c(C)c2c(c1-c1ccccc1)OCC2c1ccc(C(C)C)cc1 (stereo unspecified)
126	Cc1cccc(N2CCN(CCCCCC(=O)N3Cc4ccccc4C3)CC2)c1C#N
176 to 178	CCn1c(=O)c(CC(=O)OC)cc2ccc(O)cc21

SMILES	melting point [°C]
CCOC(=O)C1C(=O)NC(=O)C12C(=O)N(Cc1ccc(Cl)c(Cl)c1)c1ccccc12 (stereo unspecified)	60 to 85
CC12CCC3C(CCC4C(=O)CCCC43C)C1CCC2O (stereo unspecified)	123 to 126
COc1cccc(OCCN2CCC(N(C)c3nccc(N(C)C)n3)CC2)c1	105
COc1ccc(-n2nc(C(=O)NC(C)(C)C)c3c2C2CCC3C2)cc1 (stereo unspecified)	145 to 147
